Laboratory results as given in paper PMC3849131, “^18 F-click labeling and preclinical evaluation of a new ^18 F-folate for PET imaging” (EJNMMI Research, 2013).
pKi: −log10 of the molar value.

Assays:
[1] = molecular target: T1, folate receptor (Homo sapiens, UniProt P15328); experiment: Displacement assay with [^3H]folic acid on FR-positive human KB cells; format: binding; details: Cheng-Prusoff equation, assuming Kd of [^3H]folic acid 1 nM
T1 construct: using [^3H]folic acid and human KB cells in cell suspension; endogenous in cells; host or cells: human KB cells
Experimental: FR-positive human KB cells were kept under folate-deficient conditions to adjust the folate concentration levels to that of the human serum.
Figure 1 Displacement assay. […] Experiments were conducted in triplicate (n = 3).

[2] = system: KB tumor-bearing mice; experiment: In vivo μPET imaging of KB tumor-bearing mice; details: scan 60 to 90 min p.i., approximately 13 MBq
Experimental: All animal experiments were approved by the local veterinary department and complied with Swiss and local laws on animal protection. Female CD-1 nude mice (Charles River, Sulzfeld, Germany) were fed with a folate-deficient rodent diet (Harlan Laboratories, Indianapolis, IN, USA). After an acclimatization period of 5 to 7 days, human KB tumor cells (5 × 10^6 cells in 0.1 mL sterile phosphate-buffered saline (PBS)) were inoculated subcutaneously on both shoulders of each mouse. Twelve days later, the animals were intravenously injected with [^18 F]12 (approximately 5 MBq, 100 μL). […] Animals were euthanized at the indicated time points, and selected organs and tissues were collected, weighed, and measured in a γ-counter. The incorporated radioactivity was expressed as percentage injected dose per gram (%ID/g) of tissue. PET/computed tomography (CT) experiments were performed with a dedicated small-animal PET/CT scanner (eXplore Vista PET/CT, Sedecal, Algete, Spain/GE Healthcare). Animals were intravenously injected with [^18 F]12 (approximately 13 MBq, 100 μL). For scanning, mice were anesthetized with isoflurane in an air/oxygen mixture. The PET scans were acquired from 60 to 90 min post-injection (p.i.) followed by a CT. After acquisition, PET data were reconstructed in user-defined time frames, and the fused datasets of PET and CT were analyzed with PMOD software (version 3.4). […]

T1 sequence (P15328 25-257): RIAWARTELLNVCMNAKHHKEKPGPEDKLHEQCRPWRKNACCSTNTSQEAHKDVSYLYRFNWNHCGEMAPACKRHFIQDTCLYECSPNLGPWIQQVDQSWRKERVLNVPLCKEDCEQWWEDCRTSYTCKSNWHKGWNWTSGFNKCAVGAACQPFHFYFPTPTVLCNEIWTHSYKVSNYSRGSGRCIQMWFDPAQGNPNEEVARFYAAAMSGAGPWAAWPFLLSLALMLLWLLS

**Q.** How did the pKi [1] turn out when “16-(4-(((2-amino-4-oxo-3,4-dihydropteridin-6-yl)methyl)amino)benzamido)-1-(4-(2-(2-(2-[^18 F]fluoroethoxy)ethoxy)ethoxy)-1H-1,2,3-triazol-1-yl)-13-oxo-3,6,9-trioxa-12-azaheptadecan-17-oic acid [[^18 F]12]” was run?
**A.** 8.80

**Q.** What about the “tumor visualization in μPET” value [2] of the same substance?
**A.** facilitated visualization of FR-positive tumors on the maximum intensity projection
